Consider 12 compounds from patent US10100049B2, “JAK kinase inhibitor compounds for treatment of respiratory disease” (THERAVANCE BIOPHARMA R&D IP, LLC, priority 2015, dated 2018).

Data set [1] deals with IL-13 induced STAT6 phosphorylation in BEAS-2B human lung epithelial cells. In words: AlphaScreen cellular potency assay, IL-13 induced STAT6 phosphorylation in BEAS-2B cells. It is filed as cell-based. Conditions: for IC50: Homo sapiens. Background: Bead proximity is the source of the signal in Alpha formats.
Protocol: The AlphaScreen JAM cellular potency assay was carried out by measuring interleukin-13 (IL-13, R&D Systems) induced STAT6 phosphorylation in BEAS-2B human lung epithelial cells (ATCC). The anti-STAT6 antibody (Cell Signaling Technologies) was conjugated to AlphaScreen acceptor beads (Perkin Elmer), while the anti-pSTAT6 (pTyr641) antibody (Cell Signaling Technologies) was biotinylated using EZ-Link Sulfo-NHS-Biotin (Thermo Scientific).
BEAS-2B cells were grown at 37° C. in a 5% CO2 humidified incubator in 50% DMEM/50% F-12 medium (Life Technologies) supplemented with 10% FBS (Hyclone), 100 U/mL penicillin, 100 μg/mL streptomycin (Life Technologies), and 2 mM GlutaMAX (Life Technologies). On day 1 of the assay, cells were seeded at a 7,500 cells/well density in white poly-D-lysine-coated 384-well plates (Corning) with 25 μL medium, and were allowed to adhere overnight in the incubator. On day 2 of the assay, the medium was removed and replaced with 12 μL of assay buffer (Hank's Balanced Salt Solution/HBSS, 25 mM HEPES, and 1 mg/ml bovine serum albumin/BSA) containing dose-responses of test compounds. Compounds were serially diluted in DMSO and then diluted another 1000-fold in media to bring the final DMSO concentration to 0.1%. Cells were incubated with test compounds at 37° C. for 1 h, and followed by the addition of 12 μl of pre-warmed IL-13 (80 ng/ml in assay buffer) for stimulation. After incubating at 37° C. for 30 min, the assay buffer (containing compound and IL-13) was removed, and 10 μl of cell lysis buffer (25 mM HEPES, 0.1% SDS, 1% NP-40, 5 mM MgCl2, 1.3 mM EDTA, 1 mM EGTA, and supplement with Complete Ultra mini protease inhibitors and PhosSTOP from Roche Diagnostics). The plates were shaken at ambient temperature for 30 min before the addition of detection reagents. A mixture of biotin-anti-pSTAT6 and anti-STAT6 conjugated acceptor beads was added first and incubated at ambient temperature for 2 h, followed by the addition of streptavidin conjugated donor beads (Perkin Elmer). After a minimum of 2 h incubation, the assay plates were read on the EnVision plate reader.
Results were expressed as the negative logarithm of the IC50 value, pIC50.
In another data set the target is JAK1 (Homo sapiens (Human), UniProt P23458). As to the kind of experiment: LanthaScreen JAK biochemical assay (JAK1). The note with it: for Ki: read-out: pKi, JAK1 enzyme assay (converted); for fold less potent than the corresponding compound of the invention in the enzyme assay: JAK1 enzyme assay. (In general: Time-resolved FRET reads energy transfer from a long-lived donor to a nearby acceptor.)
JAK1, sequence (P23458 whole entry): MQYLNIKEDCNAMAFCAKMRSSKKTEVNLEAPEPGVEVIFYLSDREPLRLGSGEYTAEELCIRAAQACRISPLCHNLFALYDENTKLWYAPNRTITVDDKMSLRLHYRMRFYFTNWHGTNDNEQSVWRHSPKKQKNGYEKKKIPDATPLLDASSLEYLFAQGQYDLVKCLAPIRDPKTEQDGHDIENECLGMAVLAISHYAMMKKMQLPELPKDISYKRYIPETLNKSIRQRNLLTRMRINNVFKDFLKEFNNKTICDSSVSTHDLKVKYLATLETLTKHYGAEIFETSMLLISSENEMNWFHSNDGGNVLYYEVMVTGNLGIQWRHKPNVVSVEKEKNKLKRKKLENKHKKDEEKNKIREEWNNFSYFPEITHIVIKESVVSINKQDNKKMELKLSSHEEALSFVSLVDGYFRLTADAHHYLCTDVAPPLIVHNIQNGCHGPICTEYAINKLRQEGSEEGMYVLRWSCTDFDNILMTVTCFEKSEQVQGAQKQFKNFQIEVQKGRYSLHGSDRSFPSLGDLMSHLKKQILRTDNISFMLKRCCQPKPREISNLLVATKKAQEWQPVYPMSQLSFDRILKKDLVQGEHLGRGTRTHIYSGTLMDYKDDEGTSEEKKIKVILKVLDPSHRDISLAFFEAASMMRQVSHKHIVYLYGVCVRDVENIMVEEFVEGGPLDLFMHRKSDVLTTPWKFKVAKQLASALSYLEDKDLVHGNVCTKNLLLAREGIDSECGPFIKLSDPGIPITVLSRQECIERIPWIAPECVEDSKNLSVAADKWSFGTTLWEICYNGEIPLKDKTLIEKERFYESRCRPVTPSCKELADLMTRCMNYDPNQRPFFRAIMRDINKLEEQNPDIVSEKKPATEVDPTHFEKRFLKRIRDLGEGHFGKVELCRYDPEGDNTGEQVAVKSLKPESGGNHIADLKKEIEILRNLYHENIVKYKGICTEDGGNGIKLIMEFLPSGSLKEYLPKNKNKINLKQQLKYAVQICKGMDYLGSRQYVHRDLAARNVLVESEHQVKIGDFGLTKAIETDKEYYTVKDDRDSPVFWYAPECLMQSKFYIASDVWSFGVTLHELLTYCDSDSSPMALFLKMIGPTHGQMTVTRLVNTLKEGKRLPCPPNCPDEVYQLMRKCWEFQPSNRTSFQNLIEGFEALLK

Data set [2] can be described thus: Pharmacokinetics in plasma and lung in mouse. The data set is classed as in vivo. Conditions: oral aspiration 0.2 mg/mL 50 uL, lung AUC (μg hr/g) / plasma AUC (μg hr/mL). On the procedure:
Plasma and lung levels of test compounds and ratios thereof were determined in the following manner. BALB/c mice from Charles River Laboratories were used in the assay. Test compounds were individually formulated in 20% propylene glycol in pH 4 citrate buffer at a concentration of 0.2 mg/mL and 50 uL of the dosing solution was introduced into the trachea of a mouse by oral aspiration. At various time points (typically 0.167, 2, 6, 24 hr) post dosing, blood samples were removed via cardiac puncture and intact lungs were excised from the mice. Blood samples were centrifuged (Eppendorf centrifuge, 5804R) for 4 minutes at approximately 12,000 rpm at 4° C. to collect plasma. Lungs were padded dry, weighed, and homogenized at a dilution of 1:3 in sterile water. Plasma and lung levels of test compound were determined by LC-MS analysis against analytical standards constructed into a standard curve in the test matrix. A lung to plasma ratio was determined as the ratio of the lung AUC in μg hr/g to the plasma AUC in μg hr/mL, where AUC is conventionally defined as the area under the curve of test compound concentration vs. time.

Data set [3] has as its system IL-13 induced pSTAT6 in lung tissue. In words: Murine model of IL-13 induced pSTAT6 induction in lung tissue. The data set is classed as in vivo. Conditions: mouse lung; for inhibition in vivo at 500 µg/mL: 0.5 mg/mL, 50 μL oral aspiration, IL-13 challenge 4 h after dosing, lungs collected 1 h later, read-out: pSTAT6 inhibition Assay 5; for factor by which lung concentration was smaller than that of the corresponding compound of the invention: pharmacodynamic assay. On the procedure: Il-13 is an important cytokine underlying the pathophysiology of asthma (Kudlacz et al. Eur. J. Pharmacol, 2008, 582, 154-161). IL-13 binds to cell surface receptors activating members of the Janus family of kinases (JAK) which then phosphorylate STAT6 and subsequently activates further transcription pathways. In the described model, a dose of IL-13 was delivered locally into the lungs of mice to induce the phosphorylation of STAT6 (pSTAT6) which is then measured as the endpoint.
Adult balb/c mice from Harlan were used in the assay. On the day of study, animals were lightly anesthetized with isoflurane and administered either vehicle or test compound (0.5 mg/mL, 50 μL total volume over several breaths) via oral aspiration. Animals were placed in lateral recumbency post dose and monitored for full recovery from anesthesia before being returned to their home cage. Four hours later, animals were once again briefly anesthetized and challenged with either vehicle or IL-13 (0.03 μg total dose delivered, 50 μL total volume) via oral aspiration before being monitored for recovery from anesthesia and returned to their home cage. One hour after vehicle or IL-13 administration, lungs were collected for both pSTAT6 detection using an anti-pSTAT6 ELISA (rabbit mAb capture/coating antibody; mouse mAb detection/report antibody: anti-pSTAT6-pY641; secondary antibody: anti-mouse IgG-HRP) and analyzed for total drug concentration as described above in Assay 4.
Selected compounds of the invention were tested in the assay. Activity in the model is evidenced by a decrease in the level of pSTAT6 present in the lungs of treated animals at 5 hours compared to the vehicle treated, IL-13 challenged control animals. The difference between the control animals which were vehicle-treated, IL-13 challenged and the control animals which were vehicle-treated, vehicle challenged dictated the 0% and 100% inhibitory effect, respectively, in any given experiment.

Data set [4] has as its system Alternaria-induced BALF eosinophils. As to the kind of experiment: Murine model of Alternaria alternata-induced eosinophilic inflammation of the lung. Conditions: mouse; maximum statistically significant inhibition; 0.1-1.0 mg/mL, 50 μL oropharyngeal aspiration; BALF 48 h after alternaria. The data set is classed as in vivo. As for the experimental part:
Airway eosinophilia is a hallmark of human asthma. Alternaria alternata is a fungal aeroallergen that can exacerbate asthma in humans and induces eosinophilic inflammation in the lungs of mice (Havaux et al. Clin Exp Immunol. 2005, 139(2):179-88).
Seven- to nine-week old male C57 mice from Taconic were used in the study. On the day of study, animals were lightly anesthetized with isoflurane and administered either vehicle or test compound (0.1-1.0 mg/mL, 50 μL total volume over several breaths) via oropharyngeal aspiration. Animals were placed in lateral recumbency post dose and monitored for full recovery from anesthesia before being returned to their home cage. One hour later, animals were once again briefly anesthetized and challenged with either vehicle or alternaria extract (200 ug total extract delivered, 50 μL total volume) via oropharyngeal aspiration before being monitored for recovery from anesthesia and returned to their home cage. Forty-eight hours after alternaria administration, bronchoalveolar lavage fluid (BALF) was collected and eosinophils were counted in the BALF using the Advia 120 Hematology System (Siemens).
Selected compounds of the invention were tested in this alternaria assay. Activity in the model is evidenced by a decrease in the level of eosinophils present in the BALF of treated animals at forty-eight hours compared to the vehicle treated, alternaria challenged control animals. Data are expressed as percent inhibition of the vehicle treated, alternaria challenged BALF eosinophils response. To calculate percent inhibition, the number of BALF eosinophils for each condition is converted to percent of the average vehicle treated, alternaria challenged BALF eosinophils and subtracted from one-hundred percent.

The target in a further data set is JAK2 (Homo sapiens (Human), UniProt O60674).
JAK2, sequence (O60674 whole entry): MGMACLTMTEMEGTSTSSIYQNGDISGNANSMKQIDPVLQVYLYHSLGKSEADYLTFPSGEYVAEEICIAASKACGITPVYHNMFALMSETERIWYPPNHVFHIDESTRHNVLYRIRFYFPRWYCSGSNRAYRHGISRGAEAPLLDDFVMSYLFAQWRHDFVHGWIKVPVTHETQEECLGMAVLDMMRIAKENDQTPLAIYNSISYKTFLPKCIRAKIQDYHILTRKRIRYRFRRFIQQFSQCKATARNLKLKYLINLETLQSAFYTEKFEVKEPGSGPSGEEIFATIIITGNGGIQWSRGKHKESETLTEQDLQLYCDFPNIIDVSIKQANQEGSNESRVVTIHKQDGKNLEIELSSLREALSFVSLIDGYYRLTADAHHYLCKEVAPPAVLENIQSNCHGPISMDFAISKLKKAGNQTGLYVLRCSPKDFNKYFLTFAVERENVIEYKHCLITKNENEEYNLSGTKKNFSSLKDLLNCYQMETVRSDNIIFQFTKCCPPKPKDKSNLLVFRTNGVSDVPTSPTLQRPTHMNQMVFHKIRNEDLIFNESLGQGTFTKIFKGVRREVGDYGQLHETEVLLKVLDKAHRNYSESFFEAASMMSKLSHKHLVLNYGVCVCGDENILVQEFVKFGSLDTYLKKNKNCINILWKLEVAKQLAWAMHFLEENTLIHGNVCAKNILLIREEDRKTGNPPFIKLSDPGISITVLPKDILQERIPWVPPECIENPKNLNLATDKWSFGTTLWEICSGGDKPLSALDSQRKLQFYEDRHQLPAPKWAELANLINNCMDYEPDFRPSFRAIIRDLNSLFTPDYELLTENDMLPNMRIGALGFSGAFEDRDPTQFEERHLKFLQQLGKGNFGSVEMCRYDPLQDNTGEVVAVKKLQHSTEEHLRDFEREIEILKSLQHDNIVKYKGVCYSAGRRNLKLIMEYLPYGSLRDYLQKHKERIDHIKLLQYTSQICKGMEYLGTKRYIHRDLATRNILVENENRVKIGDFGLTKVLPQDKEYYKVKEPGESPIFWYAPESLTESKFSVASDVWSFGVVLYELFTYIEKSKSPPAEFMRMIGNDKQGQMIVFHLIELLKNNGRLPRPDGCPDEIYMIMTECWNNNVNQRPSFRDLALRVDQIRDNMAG
A further data set addresses Tyk2 (Homo sapiens (Human), UniProt P29597). In words: LanthaScreen JAK biochemical assay (Tyk2). Further: ATP at Km 10 µM. The note with it: read-out: Tyk 2 (PKi).
Another data set has as its target JAK3 (Homo sapiens (Human), UniProt P52333). As to the kind of experiment: LanthaScreen JAK biochemical assay (JAK3). The note with it: ATP at Km 1.6 μM; read-out: JAK 3 (pKi) (converted).
Setting [5] is: BEAS-2B, read-out: BEAS-2B pIC50 (cellular potency) (converted).
The mark [6] stands for this setting: IL-13 induced STAT6 phosphorylation, BEAS-2B cells, read-out: BEAS-2B pIC50 (converted).

The structures appear in SMILES notation. Read-outs that look alike come from different tables or passages of the source.

Tyk2, sequence (P29597 whole entry): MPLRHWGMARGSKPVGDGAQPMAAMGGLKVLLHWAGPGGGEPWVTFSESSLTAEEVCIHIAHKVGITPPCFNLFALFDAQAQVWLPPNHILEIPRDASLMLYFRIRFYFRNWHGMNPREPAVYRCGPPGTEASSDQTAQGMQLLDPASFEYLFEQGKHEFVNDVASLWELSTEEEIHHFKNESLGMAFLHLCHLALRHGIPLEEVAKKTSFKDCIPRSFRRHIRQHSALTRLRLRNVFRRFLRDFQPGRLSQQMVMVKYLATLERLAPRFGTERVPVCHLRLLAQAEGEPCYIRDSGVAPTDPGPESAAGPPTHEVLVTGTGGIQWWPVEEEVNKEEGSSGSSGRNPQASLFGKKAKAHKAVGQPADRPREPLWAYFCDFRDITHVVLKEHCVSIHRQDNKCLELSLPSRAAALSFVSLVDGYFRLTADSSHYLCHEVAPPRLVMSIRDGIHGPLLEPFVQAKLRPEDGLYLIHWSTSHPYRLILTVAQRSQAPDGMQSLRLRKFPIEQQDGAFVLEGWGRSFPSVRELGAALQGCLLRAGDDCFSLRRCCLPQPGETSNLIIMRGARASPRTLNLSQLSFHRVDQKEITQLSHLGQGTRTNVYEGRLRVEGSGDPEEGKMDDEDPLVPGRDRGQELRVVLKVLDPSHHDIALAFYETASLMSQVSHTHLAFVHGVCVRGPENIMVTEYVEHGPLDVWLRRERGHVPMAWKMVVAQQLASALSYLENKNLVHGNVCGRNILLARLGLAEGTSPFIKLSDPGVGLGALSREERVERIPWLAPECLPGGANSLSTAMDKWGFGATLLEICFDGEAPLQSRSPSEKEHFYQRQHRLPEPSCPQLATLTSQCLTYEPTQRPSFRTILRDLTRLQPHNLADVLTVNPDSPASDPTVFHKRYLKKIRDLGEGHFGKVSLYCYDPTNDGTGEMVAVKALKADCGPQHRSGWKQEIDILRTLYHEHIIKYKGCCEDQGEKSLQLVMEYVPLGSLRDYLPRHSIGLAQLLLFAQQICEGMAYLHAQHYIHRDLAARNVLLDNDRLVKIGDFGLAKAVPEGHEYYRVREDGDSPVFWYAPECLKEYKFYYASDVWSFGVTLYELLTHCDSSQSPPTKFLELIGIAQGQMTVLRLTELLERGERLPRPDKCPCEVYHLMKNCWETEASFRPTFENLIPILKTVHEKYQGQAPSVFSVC
JAK3, sequence (P52333 whole entry): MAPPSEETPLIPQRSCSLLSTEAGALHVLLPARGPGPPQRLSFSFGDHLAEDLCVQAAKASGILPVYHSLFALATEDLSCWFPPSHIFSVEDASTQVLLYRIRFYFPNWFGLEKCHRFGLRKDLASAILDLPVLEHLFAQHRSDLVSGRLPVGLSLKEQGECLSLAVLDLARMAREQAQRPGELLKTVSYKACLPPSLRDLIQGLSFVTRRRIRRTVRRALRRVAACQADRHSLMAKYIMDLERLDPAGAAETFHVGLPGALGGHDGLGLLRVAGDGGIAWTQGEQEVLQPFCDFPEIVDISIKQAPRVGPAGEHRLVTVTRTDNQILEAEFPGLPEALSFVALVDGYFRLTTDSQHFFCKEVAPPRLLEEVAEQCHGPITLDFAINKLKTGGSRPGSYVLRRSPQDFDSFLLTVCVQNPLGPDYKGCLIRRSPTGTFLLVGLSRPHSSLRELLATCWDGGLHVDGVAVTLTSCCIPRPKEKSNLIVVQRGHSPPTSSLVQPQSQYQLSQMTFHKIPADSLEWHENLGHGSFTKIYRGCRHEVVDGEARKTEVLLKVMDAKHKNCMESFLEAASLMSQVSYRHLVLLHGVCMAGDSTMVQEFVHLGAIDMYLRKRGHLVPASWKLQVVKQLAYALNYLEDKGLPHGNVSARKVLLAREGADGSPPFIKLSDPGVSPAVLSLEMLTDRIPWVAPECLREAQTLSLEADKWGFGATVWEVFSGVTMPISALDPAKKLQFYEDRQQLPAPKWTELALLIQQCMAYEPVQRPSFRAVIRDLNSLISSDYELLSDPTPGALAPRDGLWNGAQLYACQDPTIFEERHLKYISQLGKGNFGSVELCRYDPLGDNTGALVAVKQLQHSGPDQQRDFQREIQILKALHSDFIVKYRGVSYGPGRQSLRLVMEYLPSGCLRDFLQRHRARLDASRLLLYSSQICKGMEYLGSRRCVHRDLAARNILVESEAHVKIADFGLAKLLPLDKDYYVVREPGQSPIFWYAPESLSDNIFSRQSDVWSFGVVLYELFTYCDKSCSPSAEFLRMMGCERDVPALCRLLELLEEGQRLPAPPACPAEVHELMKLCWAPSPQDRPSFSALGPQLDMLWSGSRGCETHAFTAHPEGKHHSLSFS

Regarding `CCc1cc(O)c(F)cc1-c1ccc2c(-c3nc4c([nH]3)CCN(CC3CCN3C3COC3)C4)n[nH]c2c1` (stereo not drawn) [Example 8-11], the IC50 in data set [1] (setting [5]) is 39.8 to 1000 nM. The Ki at JAK1 was 1 to 3.16 nM.

With `CCc1cc(O)c(F)cc1-c1ccc2c(-c3nc4c([nH]3)CCN(C3CN(C)C3)C4)n[nH]c2c1` [Example 1, 5-Ethyl-2-fluoro-4-(3-(5-(1-methylazetidin-3-yl)-4,5,6,7-tetrahydro-1H-imidazo[4,5-c]pyridin-2-yl)-1H-indazol-6-yl)phenol], the “Lung to Plasma ratio Assay 4” value in data set [2] was “B (B denotes a ratio between 50 and 100)”. Besides, the IC50 in data set [1] (setting [6]) was below 10 nM. In addition, the inhibition in vivo at 500 µg/mL in data set [3] was above 65%. In addition, the “Percent Inhibition of Alternaria-induced BALF Eosinophils” value (“Percent Inhibition” below) in data set [4] is given as 98%. On JAK2, this compound displayed a Ki below 0.1 nM.

With `CCc1cc(O)c(F)cc1-c1ccc2c(-c3nc4c([nH]3)CCN(CCC(C)C)C4)n[nH]c2c1` [Example C-2, reference compound], the “fold less potent than the corresponding compound of the invention in the BEAS-2B cellular assay” value in data set [1] is 6 fold. The “fold less potent than the corresponding compound of the invention in the enzyme assay” value at JAK1 was found to be 3 fold. For the same compound, the “factor by which lung concentration was smaller than that of the corresponding compound of the invention” value in data set [3] was 52.

As to `CCc1cc(O)c(F)cc1-c1ccc2c(-c3nc4c([nH]3)CCN(C3CNC3)C4)n[nH]c2c1` [Example 2, 4-(3-(5-(azetidin-3-yl)-4,5,6,7-tetrahydro-1H-imidazo[4,5-c]pyridin-2-yl)-1H-indazol-6-yl)-5-ethyl-2-fluorophenol], the “Lung to Plasma ratio Assay 4” value in data set [2] is “C (C denotes a ratio between 10 and 50)”. The IC50 in data set [1] (setting [6]) is 10 to 39.8 nM. Further, the Ki was 0.1 to 1 nM on Tyk2 and below 0.1 nM on JAK2. Also, in data set [3], the inhibition in vivo at 500 µg/mL was 33 to 50%. In addition, the “Percent Inhibition” value in data set [4] came out at 93%.

`CCc1cc(O)c(F)cc1-c1ccc2c(-c3nc4c([nH]3)CCN(CC3CCCOC3)C4)n[nH]c2c1` (stereo not drawn) [Example C-3, reference compound]: the “fold less potent than the corresponding compound of the invention in the BEAS-2B cellular assay” value in data set [1] was determined as 3 fold. Moreover, on JAK1, the “fold less potent than the corresponding compound of the invention in the enzyme assay” value turned out to be 6 fold. Besides, the “factor by which lung concentration was smaller than that of the corresponding compound of the invention” value in data set [3] turned out to be 13.

`CCc1cc(O)c(F)cc1-c1ccc2c(-c3nc4c([nH]3)CCN(CCNC3CC(OC)C3)C4)n[nH]c2c1` (stereo not drawn) [Example 8, 5-Ethyl-2-fluoro-4-(3-(5-(2-((3-methoxycyclobutyl)amino)ethyl)-4,5,6,7-tetrahydro-1H-imidazo[4,5-c]pyridin-2-yl)-1H-indazol-6-yl)phenol]: in data set [2], the “Lung to Plasma ratio Assay 4” value is given as “A (A denotes a ratio >100)”. Besides, the IC50 in data set [1] (setting [6]) is below 10 nM. For the same compound, the Ki was 0.1 to 1 nM on Tyk2, 0.1 to 1 nM on JAK3 and below 0.1 nM at JAK2. In addition, the inhibition in vivo at 500 µg/mL in data set [3] was 50 to 65%. Moreover, in data set [4], the “Percent Inhibition” value is 60%.

As for `CCc1cc(O)c(F)cc1-c1ccc2c(-c3nc4c([nH]3)CCN(C3CCN(C)CC3)C4)n[nH]c2c1` [Example 6, 5-Ethyl-2-fluoro-4-(3-(5-(1-methylpiperidin-4-yl)-4,5,6,7-tetrahydro-1H-imidazo[4,5-c]pyridin-2-yl)-1H-indazol-6-yl)phenol], the “Lung to Plasma ratio Assay 4” value in data set [2] is “B (B denotes a ratio between 50 and 100)”. Moreover, the IC50 in data set [1] (setting [6]) was below 10 nM. Further, the Ki was 0.1 to 1 nM at Tyk2, 0.1 to 1 nM on JAK3 and below 0.1 nM at JAK2. Also, the inhibition in vivo at 500 µg/mL in data set [3] lay within 50 to 65%. In addition, in data set [4], the “Percent Inhibition” value was determined as 88%.

Take `CCc1cc(O)c(F)cc1-c1ccc2c(-c3nc4c([nH]3)CCN(C3CN(C(C)C)C3)C4)n[nH]c2c1` [Example 3, 5-ethyl-2-fluoro-4-(3-(5-(1-isopropylazetidin-3-yl)-4,5,6,7-tetrahydro-1H-imidazo[4,5-c]pyridin-2-yl)-1H-indazol-6-yl)phenol]: the “Lung to Plasma ratio Assay 4” value in data set [2] is “C (C denotes a ratio between 10 and 50)”. The IC50 in data set [1] (setting [6]) is below 10 nM. The Ki was 0.1 to 1 nM on Tyk2, 0.1 to 1 nM at JAK3 and below 0.1 nM at JAK2. The inhibition in vivo at 500 µg/mL in data set [3] is above 65%. In addition, in data set [4], the “Percent Inhibition” value is recorded as 61%.

For the compound `CCc1cc(O)c(F)cc1-c1ccc2c(-c3nc4c([nH]3)CCN(C[C@H]3COCCN3)C4)n[nH]c2c1` [Example 13, (S)-5-Ethyl-2-fluoro-4-(3-(5-(morpholin-3-ylmethyl)-4,5,6,7-tetrahydro-1H-imidazo[4,5-c]pyridin-2-yl)-1H-indazol-6-yl)phenol], the “Lung to Plasma ratio Assay 4” value in data set [2] was “A (A denotes a ratio >100)”. In addition, in data set [1] (setting [6]), the IC50 is below 10 nM. Moreover, the Ki was 0.316 to 1 nM at Tyk2, 0.1 to 1 nM at JAK3 and below 0.1 nM on JAK2. For the same compound, the inhibition in vivo at 500 µg/mL in data set [3] fell in the range of 33 to 50%. In data set [4], the “Percent Inhibition” value was 82%.

Regarding `CCc1cc(O)c(F)cc1-c1ccc2c(-c3nc4c([nH]3)CCN(CCN(C)C)C4)n[nH]c2c1` [Example 7, 4-(3-(5-(2-(dimethylamino)ethyl)-4,5,6,7-tetrahydro-1H-imidazo[4,5-c]pyridin-2-yl)-1H-indazol-6-yl)-5-ethyl-2-fluorophenol], in data set [2], the “Lung to Plasma ratio Assay 4” value was “B (B denotes a ratio between 50 and 100)”. For the same compound, in data set [1] (setting [6]), the IC50 is below 10 nM. In data set [3], the inhibition in vivo at 500 µg/mL was above 65%. Besides, in data set [4], the “Percent Inhibition” value is listed as 96%. The compound also had a Ki on JAK2 below 0.1 nM.

`CCc1cc(O)c(F)cc1-c1ccc2c(-c3nc4c([nH]3)CCN(CCN(C)C(C)CC)C4)n[nH]c2c1` (stereo not drawn) [Example 10, 4-(3-(5-(2-(sec-butyl(methyl)amino)ethyl)-4,5,6,7-tetrahydro-1H-imidazo[4,5-c]pyridin-2-yl)-1H-indazol-6-yl)-5-ethyl-2-fluorophenol]: the “Lung to Plasma ratio Assay 4” value in data set [2] is “B (B denotes a ratio between 50 and 100)”. Also, the IC50 in data set [1] (setting [6]) is below 10 nM. Moreover, the Ki at Tyk2 is 0.1 to 1 nM; at JAK3, 0.1 to 1 nM; at JAK2 it was below 0.1 nM. Also, the inhibition in vivo at 500 µg/mL in data set [3] fell in the range of 33 to 50%.

With `CCc1cc(O)c(F)cc1-c1ccc2c(-c3nc4c([nH]3)CCN(CC3CCCN3C3COC3)C4)n[nH]c2c1` (stereo not drawn) [Example 4-8], the IC50 in data set [1] (setting [5]) is 39.8 to 1000 nM. Moreover, the Ki on JAK1 is 1 to 3.16 nM.
